For 23 molecules, IC50 and Activity results are on record in ChEMBL document CHEMBL5053505, “Rational Remodeling of Atypical Scaffolds for the Design of Photoswitchable Cannabinoid Receptor Tools” (J Med Chem, 2021).

The target of experiment [1] is T1, Cannabinoid receptor 2 (Homo sapiens, UniProt P34972). Briefly: Antagonist activity at human CB2 Receptor expressed in CHO cell membranes measured after 24 hrs by HTRF assay. The class given is functional, Cell membrane. Background: TR-FRET usually uses a lanthanide donor and a delayed reading to cut background.
T1 sequence (P34972 whole entry): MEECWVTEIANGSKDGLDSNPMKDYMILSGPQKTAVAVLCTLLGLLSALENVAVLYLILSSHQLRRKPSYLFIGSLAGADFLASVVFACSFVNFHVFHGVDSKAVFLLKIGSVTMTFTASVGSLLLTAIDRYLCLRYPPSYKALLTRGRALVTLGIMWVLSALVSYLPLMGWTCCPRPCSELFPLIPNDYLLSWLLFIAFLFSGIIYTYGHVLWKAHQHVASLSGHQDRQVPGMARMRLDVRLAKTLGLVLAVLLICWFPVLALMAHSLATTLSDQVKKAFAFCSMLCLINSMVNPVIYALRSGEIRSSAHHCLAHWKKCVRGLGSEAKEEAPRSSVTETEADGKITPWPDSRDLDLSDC
The target of experiment [2] is T2, Cannabinoid receptor 1 (Homo sapiens, UniProt P21554). The experiment can be described thus: Antagonist activity at human CB1 Receptor expressed in CHO cell membranes measured after 24 hrs by HTRF assay. The class given is functional, Cell membrane.
T2 sequence (P21554 whole entry): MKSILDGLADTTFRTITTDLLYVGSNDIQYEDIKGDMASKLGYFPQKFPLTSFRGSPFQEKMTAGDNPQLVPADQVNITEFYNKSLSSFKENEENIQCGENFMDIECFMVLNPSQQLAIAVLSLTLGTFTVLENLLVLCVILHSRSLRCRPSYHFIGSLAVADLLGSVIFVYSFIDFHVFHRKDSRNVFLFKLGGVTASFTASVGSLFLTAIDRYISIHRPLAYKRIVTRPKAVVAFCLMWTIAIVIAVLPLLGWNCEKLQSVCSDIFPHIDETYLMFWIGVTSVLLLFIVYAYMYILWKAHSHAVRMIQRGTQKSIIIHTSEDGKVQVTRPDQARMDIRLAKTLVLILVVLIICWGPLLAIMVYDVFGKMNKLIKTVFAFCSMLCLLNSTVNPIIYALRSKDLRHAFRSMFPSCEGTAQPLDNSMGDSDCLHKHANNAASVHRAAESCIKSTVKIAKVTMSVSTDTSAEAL
Experiment [3] has as its target T1, Cannabinoid receptor 2. The experiment can be described thus: Antagonist activity at human CB2 Receptor expressed in CHO-K1 cells assessed as reduction in CP55940-induced ERK1/2 phosphorylation measured Western blot analysis. The conditions noted are these: filed as antagonist. The class given is functional, cell-based. In general terms: In western blotting, separated proteins are transferred to a membrane and probed.

The target in experiment [4] is T2, Cannabinoid receptor 1. Briefly: Antagonist activity at human CB1 Receptor expressed in CHO-K1 cells assessed as reduction in CP55940-induced ERK1/2 phosphorylation measured Western blot analysis. The experiment is classed as functional, cell-based.

The source made the active and inactive calls. The calls are words filed in the database; no cut-off is given here.

For orientation: IC50 means the concentration at which inhibition is half-maximal. Low readings indicate greater potency in that assay, high ones weaker potency in that assay. As for `Cc1c(C(=O)NCc2ccccc2/N=N/c2ccccc2)nn(CCCCCO)c1-c1ccccc1`, the IC50 worked out at 3.2 µM against Cannabinoid receptor 2 [1] and 1.6 µM at Cannabinoid receptor 1 [2]. In addition, the outcome at Cannabinoid receptor 2 [3] was Active. Also, the result on Cannabinoid receptor 1 [4] was inactive. With `Cc1c(C(=O)NCc2ccc(/N=N\c3ccccc3)cc2)nn(CCCCCO)c1-c1ccccc1`, the IC50 on Cannabinoid receptor 2 [1] amounted to 6.9 µM; against Cannabinoid receptor 1 [2], 4.1 µM. `Cc1c(C(=O)NCCCc2cccc(/N=N\c3ccccc3)c2)nn(CCCCCO)c1-c1ccccc1`: the IC50 on Cannabinoid receptor 2 [1] worked out at 1.1 µM; at Cannabinoid receptor 1 [2], 3.8 µM.

Regarding `Cc1c(C(=O)Nc2cccc(/N=N/c3ccccc3)c2)nn(CCCCCO)c1-c1ccccc1`, the half-maximal inhibitory concentration (IC50) on Cannabinoid receptor 2 [1] amounted to 1.5 µM; at Cannabinoid receptor 1 [2], 6.2 µM.

For `Cc1c(C(=O)NCCc2ccccc2/N=N\c2ccccc2)nn(CCCCCO)c1-c1ccccc1`, the half-maximal inhibitory concentration (IC50) came to 0.36 µM at Cannabinoid receptor 2 [1] and 1.7 µM against Cannabinoid receptor 1 [2]. Consider `Cc1c(C(=O)NCc2ccccc2/N=N\c2ccccc2)nn(CCCCCO)c1-c1ccccc1`, for which the concentration for half-maximal inhibition (IC50) is 0.07 µM against Cannabinoid receptor 2 [1] and 1.1 µM against Cannabinoid receptor 1 [2]. Further, the result at Cannabinoid receptor 2 [3] was Active. The result on Cannabinoid receptor 1 [4] was inactive. On to `Cc1c(C(=O)NCCCc2cccc(/N=N/c3ccccc3)c2)nn(CCCCCO)c1-c1ccccc1`, for which the IC50 against Cannabinoid receptor 2 [1] was 3.7 µM; against Cannabinoid receptor 1 [2] it was 4.8 µM.

In turn, `Cc1c(C(=O)NCCc2ccc(/N=N/c3ccccc3)cc2)nn(CCCCCO)c1-c1ccccc1` returned an IC50 against Cannabinoid receptor 1 [2] of 7.9 µM.

As for `Cc1c(C(=O)NCCCc2ccccc2/N=N/c2ccccc2)nn(CCCCCO)c1-c1ccccc1`, the concentration for half-maximal inhibition (IC50) against Cannabinoid receptor 2 [1] came to 3.4 µM; against Cannabinoid receptor 1 [2], 9 µM.

Consider `Cc1c(C(=O)NCCc2ccc(/N=N\c3ccccc3)cc2)nn(CCCCCO)c1-c1ccccc1`, for which the IC50 amounted to 5.2 µM on Cannabinoid receptor 2 [1] and 3.3 µM at Cannabinoid receptor 1 [2]. On Cannabinoid receptor 2 [1], `Cc1c(C(=O)Nc2ccccc2/N=N/c2ccccc2)nn(CCCCCO)c1-c1ccccc1` returned an IC50 of 5.5 µM. Still for that read-out and setting: with `Cc1c(C(=O)Nc2ccccc2/N=N\c2ccccc2)nn(CCCCCO)c1-c1ccccc1` the figure was 0.62 µM. Consider `Cc1c(C(=O)NCc2cccc(/N=N\c3ccccc3)c2)nn(CCCCCO)c1-c1ccccc1`, for which the half-inhibitory concentration (IC50) against Cannabinoid receptor 2 [1] worked out at 7 µM; at Cannabinoid receptor 1 [2], 5.8 µM. At Cannabinoid receptor 1 [2], `Cc1c(C(=O)NCCCc2ccc(/N=N/c3ccccc3)cc2)nn(CCCCCO)c1-c1ccccc1` gave a half-maximal inhibitory concentration (IC50) of 7.2 µM. Regarding `Cc1c(C(=O)NCCc2cccc(/N=N\c3ccccc3)c2)nn(CCCCCO)c1-c1ccccc1`, the IC50 turned out to be 1.6 µM against Cannabinoid receptor 2 [1] and 3.3 µM at Cannabinoid receptor 1 [2]. For the molecule `Cc1c(C(=O)NCCc2cccc(/N=N/c3ccccc3)c2)nn(CCCCCO)c1-c1ccccc1`, the IC50 came out at 6.5 µM against Cannabinoid receptor 2 [1] and 5.9 µM at Cannabinoid receptor 1 [2]. Molecule `Cc1c(C(=O)NCc2cccc(/N=N/c3ccccc3)c2)nn(CCCCCO)c1-c1ccccc1` showed an IC50 on Cannabinoid receptor 1 [2] of 9.4 µM.

`Cc1c(C(=O)NCCCc2ccccc2/N=N\c2ccccc2)nn(CCCCCO)c1-c1ccccc1`: the 50% inhibitory concentration (IC50) at Cannabinoid receptor 2 [1] was 1.3 µM; on Cannabinoid receptor 1 [2] it was 3.9 µM.

With `Cc1c(C(=O)NCCc2ccccc2/N=N/c2ccccc2)nn(CCCCCO)c1-c1ccccc1`, the IC50 at Cannabinoid receptor 2 [1] was 2.1 µM; at Cannabinoid receptor 1 [2], 3.8 µM. In the case of `Cc1c(C(=O)Nc2ccc(/N=N\c3ccccc3)cc2)nn(CCCCCO)c1-c1ccccc1`, the IC50 on Cannabinoid receptor 2 [1] stood at 9 µM.

Consider `Cc1c(C(=O)NCc2ccc(/N=N/c3ccccc3)cc2)nn(CCCCCO)c1-c1ccccc1`, for which the IC50 against Cannabinoid receptor 1 [2] came out at 8.3 µM. Turning to `Cc1c(C(=O)NCCCc2ccc(/N=N\c3ccccc3)cc2)nn(CCCCCO)c1-c1ccccc1`, the half-inhibitory concentration (IC50) against Cannabinoid receptor 2 [1] was found to be 3.5 µM; against Cannabinoid receptor 1 [2] it was 5.4 µM.

In the case of `Cc1c(C(=O)Nc2cccc(/N=N\c3ccccc3)c2)nn(CCCCCO)c1-c1ccccc1`, the half-maximal inhibitory concentration (IC50) against Cannabinoid receptor 2 [1] was found to be 0.41 µM; against Cannabinoid receptor 1 [2], 2.4 µM.
